This is an account of results in patent publication US9029332B2, “Cross-linked peptides and proteins, methods of making same, and uses thereof” (The Research Foundation for The State University of New York, priority 2010, dated 2015).

Square brackets hold non-standard residues; d marks the D form. Peptide text beside a SMILES is read from it.

Data set [1] concerns the target T1, full-length human MDM2 (GST-MDM2) (Homo sapiens, UniProt Q00987).
T1 construct: GST-MDM2 and GST-MDMX containing full-length human MDM2 and MDMX; made in house; host or cells: Escherichia coli
The experiment in a line: ELISA, inhibition of p53-MDM2 interaction. The following applies: relative to comparator linear peptide. The data set is classed as binding. From the text: FIG. 10. ELISA data of the cross-linked PDI analogs. The experiments were repeated three times and the resulting data were plotted with GraphPad Prism 5.0 to derive the average IC50 values along with standard deviations.
ELISA Assay. GST-MDM2 and GST-MDMX containing full-length human MDM2 and MDMX and His6-tagged human p53 were expressed in Escherichia coli and purified by glutathione agarose and Ni^2+-nitrilotriacetic acid beads, respectively, under non-denaturing conditions. Microtiter plates were coated with 2.5 μg/ml His6-p53 in PBS buffer for 16 hours. After washing with PBS containing 0.1% Tween-20 (PBST), the plates were blocked with PBST containing 5% nonfat dry milk (PBSTM) for 30 minutes. Peptides were dissolved in DMSO. GST-MDM2 and MDMX (5 μg/ml) were mixed with peptides in PBSMT containing 10% glycerol and 10 mM dithiolthreitol prior to their additions to the wells at the specified concentrations. The incubation was allowed to proceed for 1 hour at room temperature before the plates were washed with PBST. […] The plates were developed by incubation with TMB peroxidase substrate (KPL, Gaithersburg, Md.) and measured by absorbance at 450 nm. The data was analyzed with the Origin 6.0 software. […]

Data set [2] addresses T2, GST-Mcl-1 (Homo sapiens, UniProt Q07820). The experiment in a line: FP binding affinity of fluorescein-labeled peptides, Mcl-1. The following applies: FP assay, fluorescein-labeled peptide.
Data set [3] deals with GST-Bcl-xL (Homo sapiens, UniProt Q07817). Put plainly: FP binding affinity of fluorescein-labeled peptides, Bcl-xL. The following applies: FP assay, fluorescein-labeled peptide; read-out: GST-Bcl-xL Kd.
Data set [4] in a line: Circular dichroism, percent helicity. It counts as physicochemical. The following applies: compared to the linear NoxaBH3 peptide, 50 μM in 20% ACN/H2O. The protocol: FIG. 12. […] The peptides were dissolved in 20% ACN/H2O for a final concentration of 50 μM.
Circular Dichroism Study. […] The spectra were recorded in the wavelength range of 190-250 nm and averaged over 3 scans with a resolution of 0.5 nm, a bandwidth of 1.0 nm and a response time of 4 s. The sensitivity and the speed of the spectrometer were set to 100 mdeg and 50 nm/min, respectively. All peptides were dissolved in 20% acetonitrile/H2O to reach final concentration of 50 μM.

Data set [5] has as its target T2, GST-Mcl-1. Put plainly: Competitive fluorescence polarization assay. The data set is classed as binding. The following applies: Noxa peptides, three repeats ± SD; read-out: FP, IC50. The protocol:
Competitive Florescence Polarization Assay. The binding affinity of the Noxa peptides toward GST-Mcl-1 was determined in a competitive fluorescence polarization assay with the fluorescein-labeled Bak or Bim. Briefly, fluorescein-labeled Bak was incubated with GST-Mcl-1 in a binding buffer (PBS, 0.005% Tween-20, pH7.4) at room temperature in a 96-well microtiter plate. […] The reading was repeated at various time points to ensure that the competition has reached equilibrium.

Data set [6] deals with Mcl-1 (Homo sapiens, UniProt Q07820). Put plainly: ELISA of cross-linked Noxa peptides. The data set is classed as binding.
The nature of data set [7]: Water solubility. It counts as physicochemical.
For data set [8], the target named is T3, chymotrypsin (Bos taurus, UniProt P00766). The experiment in a line: Chymotrypsin proteolytic stability assay.
Description: (§1) Proteolytic stability of the linear and stapled Noxa peptides against trypsin (Type IX-S, 13,000-20,000 unit/mg, Sigma) and chymotrypsin (Type II, 40 unit/mg, Sigma). To a solution of 400 μL of 0.25 mM peptide in NH4HCO3 buffer, pH 8.0, was added 80 μL trypsin (5 μg/mL) or chymotrypsin (25 μg/mL), and the resulting solution was incubated at 37° C. At the indicated times, 40 μL of the solution was transferred to 40 μL trifluoroacetic acid to quench the reaction. The samples were analyzed by reverse-phase HPLC using benzophenone as an injection control.
The target in data set [9] is T4, trypsin (Sus scrofa, UniProt P00761). The experiment in a line: Trypsin-mediated proteolytic stability assay.
Description: as §1
Data set [10] concerns the target Mcl-1 (Mus musculus, UniProt P97287). The conditions noted are these: background literature; read-out: IC50 against Mcl-1; cited from earlier work.
In data set [11] the test system is Bfl-1/A1. The conditions noted are these: background literature; read-out: IC50 against Bfl-1/A1; cited from earlier work.
Data set [12] has as its target Bcl-2 (Homo sapiens, UniProt P10415). The conditions noted are these: background literature; read-out: IC50 against Bcl-2; cited from earlier work.
The target in data set [13] is Bcl-xL (Homo sapiens, UniProt Q07817). The following applies: background literature; read-out: IC50 against Bcl-xL; cited from earlier work.
Data set [14] addresses T5, Bcl-w (Homo sapiens, UniProt Q92843).
T5 sequence (Q92843 1-193): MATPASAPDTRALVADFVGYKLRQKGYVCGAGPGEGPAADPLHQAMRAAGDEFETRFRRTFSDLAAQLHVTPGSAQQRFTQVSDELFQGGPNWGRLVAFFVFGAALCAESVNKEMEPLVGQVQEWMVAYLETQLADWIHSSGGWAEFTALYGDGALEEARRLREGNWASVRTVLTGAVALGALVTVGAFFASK
The following applies: background literature; read-out: IC50 against Bcl-w; cited from earlier work.

Data set [15] addresses T4, trypsin. Put plainly: in vitro. The following applies: pig (porcine), pH 8.
Description: as §1
The target in data set [16] is T3, chymotrypsin. Put plainly: in vitro. The following applies: cattle (bovine), pH 8.
Description: as §1

T2 sequence (Q07820 whole entry): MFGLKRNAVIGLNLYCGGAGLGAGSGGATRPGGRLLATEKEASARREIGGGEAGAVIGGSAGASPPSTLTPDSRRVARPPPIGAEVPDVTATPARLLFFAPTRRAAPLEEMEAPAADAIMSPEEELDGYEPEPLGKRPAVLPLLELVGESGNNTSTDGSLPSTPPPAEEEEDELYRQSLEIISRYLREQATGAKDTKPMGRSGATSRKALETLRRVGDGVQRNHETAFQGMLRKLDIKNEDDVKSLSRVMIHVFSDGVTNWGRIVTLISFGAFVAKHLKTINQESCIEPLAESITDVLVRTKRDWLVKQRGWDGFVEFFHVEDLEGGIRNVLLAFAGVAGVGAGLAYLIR
T4 sequence (P00761 9-231): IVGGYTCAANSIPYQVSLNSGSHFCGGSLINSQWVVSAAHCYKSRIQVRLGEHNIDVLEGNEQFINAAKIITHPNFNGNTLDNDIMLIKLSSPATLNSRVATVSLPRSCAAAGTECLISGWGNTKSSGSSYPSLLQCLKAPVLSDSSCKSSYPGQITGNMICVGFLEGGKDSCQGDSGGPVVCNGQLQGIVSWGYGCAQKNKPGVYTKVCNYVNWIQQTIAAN
GST-Bcl-xL, sequence (Q07817 whole entry): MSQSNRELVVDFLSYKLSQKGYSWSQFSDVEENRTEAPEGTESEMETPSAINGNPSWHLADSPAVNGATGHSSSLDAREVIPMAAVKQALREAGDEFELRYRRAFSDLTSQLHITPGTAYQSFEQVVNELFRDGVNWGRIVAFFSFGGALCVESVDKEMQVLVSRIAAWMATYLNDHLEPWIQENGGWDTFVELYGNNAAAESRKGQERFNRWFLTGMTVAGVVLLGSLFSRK
Bcl-2, sequence (P10415 whole entry, species assumed): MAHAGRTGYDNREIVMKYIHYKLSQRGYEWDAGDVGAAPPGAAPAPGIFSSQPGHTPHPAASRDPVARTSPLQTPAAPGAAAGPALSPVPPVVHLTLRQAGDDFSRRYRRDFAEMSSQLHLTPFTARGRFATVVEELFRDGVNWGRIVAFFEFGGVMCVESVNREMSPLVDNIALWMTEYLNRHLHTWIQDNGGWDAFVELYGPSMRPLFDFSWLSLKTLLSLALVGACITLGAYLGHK
Mcl-1 (Homo sapiens, UniProt Q07820), sequence (Q07820 whole entry, species assumed): as the sequence (Q07820 whole entry) above
Mcl-1 (Mus musculus, UniProt P97287), sequence (P97287 152-308 limits assumed): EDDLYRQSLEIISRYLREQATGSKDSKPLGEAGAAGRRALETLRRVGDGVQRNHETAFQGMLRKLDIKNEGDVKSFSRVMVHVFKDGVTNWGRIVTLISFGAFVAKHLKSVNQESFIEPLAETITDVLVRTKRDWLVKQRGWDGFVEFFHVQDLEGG
Bcl-xL, sequence (Q07817 whole entry, species assumed): as the sequence (Q07817 whole entry) above
T1 sequence (Q00987 whole entry): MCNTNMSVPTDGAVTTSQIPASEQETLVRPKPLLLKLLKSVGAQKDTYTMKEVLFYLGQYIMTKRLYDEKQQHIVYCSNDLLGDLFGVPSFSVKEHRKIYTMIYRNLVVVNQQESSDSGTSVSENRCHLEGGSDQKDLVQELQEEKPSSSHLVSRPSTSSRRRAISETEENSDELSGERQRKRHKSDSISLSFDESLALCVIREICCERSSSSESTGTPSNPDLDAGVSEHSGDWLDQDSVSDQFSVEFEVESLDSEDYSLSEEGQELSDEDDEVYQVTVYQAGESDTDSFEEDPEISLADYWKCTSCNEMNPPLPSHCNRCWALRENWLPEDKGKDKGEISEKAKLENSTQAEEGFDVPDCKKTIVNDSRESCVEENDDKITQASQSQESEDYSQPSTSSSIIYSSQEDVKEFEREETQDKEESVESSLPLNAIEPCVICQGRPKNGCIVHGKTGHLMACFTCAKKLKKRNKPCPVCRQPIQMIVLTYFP

On to `CC(=O)N[C@@H](CC(C)C)C(=O)N[C@H](C(=O)N[C@@H](Cc1ccccc1)C(=O)N[C@H](CS)C(=O)N[C@@H](Cc1c[nH]cn1)C(=O)N[C@@H](Cc1ccc(O)cc1)C(=O)N[C@@H](Cc1c[nH]c2ccccc12)C(=O)N[C@@H](C)C(=O)N[C@@H](CCC(N)=O)C(=O)N[C@@H](CC(C)C)C(=O)N[C@@H](CS)C(=O)N[C@@H](CO)C(N)=O)[C@@H](C)O` [Peptide 3] (Ac-LTF[dC]HYWAQLCS-NH2; C-terminus assumed), for which, in data set [1], the “increase in MDM2 activity” value is listed as “more than 3 fold”.

As for `CC[C@H](C)[C@@H]1NC(=O)[C@H](CCCNC(=N)N)NC(=O)[C@H](CCCNC(=N)N)NC(=O)[C@H](CC(C)C)NC(=O)[C@H](NC(=O)[C@H](C)NC(=O)[C@H](C)NC(=O)CCCCCNC(=S)Nc2ccc3c(c2)C(=O)OC32c3ccc(O)cc3Oc3cc(O)ccc32)CSCc2ccc(cc2)-c2ccc(cc2)CSC[C@@H](C(=O)N[C@H](C(=O)N[C@@H](CC(N)=O)C(=O)N[C@@H](CC(C)C)C(=O)N[C@@H](CCCNC(=N)N)C(=O)N[C@@H](CCC(N)=O)C(=O)N[C@@H](CCCCN)C(=O)N[C@@H](CC(C)C)C(=O)N[C@@H](CC(C)C)C(=O)N[C@@H](CC(N)=O)C(N)=O)C(C)C)NC(=O)[C@H](CC(=O)O)NC(=O)CNC1=O` [Fl-6a], the Kd in data set [2] was 0.7 ± 0.1 nM; in [3], more than 2000 nM.

`CC[C@H](C)[C@@H]1NC(=O)[C@H](CCCNC(=N)N)NC(=O)[C@H](CCCNC(=N)N)NC(=O)[C@H](CC(C)C)NC(=O)[C@@H](NC(=O)[C@H](C)NC(=O)[C@H](C)NC(=O)CCCCCNC(=S)Nc2ccc3c(c2)C(=O)OC32c3ccc(O)cc3Oc3cc(O)ccc32)CSCc2ccc(cc2)-c2ccc(cc2)CSC[C@@H](C(=O)N[C@H](C(=O)N[C@@H](CC(N)=O)C(=O)N[C@@H](CC(C)C)C(=O)N[C@@H](CCCNC(=N)N)C(=O)N[C@@H](CCC(N)=O)C(=O)N[C@@H](CCCCN)C(=O)N[C@@H](CC(C)C)C(=O)N[C@@H](CC(C)C)C(=O)N[C@@H](CC(N)=O)C(N)=O)C(C)C)NC(=O)[C@H](CC(=O)O)NC(=O)CNC1=O` [Fl-5a]: the values for the Kd in [2] and in data set [3] were 0.8 ± 0.1 nM and more than 2000 nM, respectively.

In the case of `CC[C@H](C)[C@@H]1NC(=O)[C@H](CCCNC(=N)N)NC(=O)[C@H](CCCNC(=N)N)NC(=O)[C@H](CC(C)C)NC(=O)[C@H](NC(=O)[C@H](C)NC(=O)[C@H](C)NC(C)=O)CSCc2ccc(cn2)-c2ccc(nc2)CSC[C@@H](C(=O)N[C@H](C(=O)N[C@@H](CC(N)=O)C(=O)N[C@@H](CC(C)C)C(=O)N[C@@H](CCCNC(=N)N)C(=O)N[C@@H](CCC(N)=O)C(=O)N[C@@H](CCCCN)C(=O)N[C@@H](CC(C)C)C(=O)N[C@@H](CC(C)C)C(=O)N[C@@H](CC(N)=O)C(N)=O)C(C)C)NC(=O)[C@H](CC(=O)O)NC(=O)CNC1=O` [Peptide 6b], the “enhancement in percent helicity” value in data set [4] is recorded as “roughly 2 fold”. In addition, the IC50 in [5] is 140 ± 43 nM; in data set [6], 140 nM. In addition, the water solubility entry in data set [7] is recorded as “better water solubility”. For the same compound, the “times more stable against chymotrypsin than parent linear peptide” value in data set [8] is reported as more than 16 times. For the same compound, the half-life at 0.208 mM stood at 54 min in data set [8] (cattle (bovine), chymotrypsin (Type II, Sigma) in NH4HCO3 buffer, pH 8) and 11.5 min in data set [9] (pig (porcine), trypsin (Type IX-S, Sigma) in NH4HCO3 buffer, pH 8). In data set [9], the “times more stable against trypsin than parent linear peptide” value was more than 6 times.

Regarding “NoxaBH3-(18-43): human Noxa BH3 peptide, residues 18-43 (PAELEVECATQLRRFGDKLNFRQKLL; UniProt Q13794 18-43, looked up, fragment)”, the IC50 was 24 nM in [10]; 180 nM in [11]; more than 100 µM in [12]; more than 100 µM in data set [13]; more than 100 µM in data set [14].

Take `CC[C@H](C)[C@H](NC(=O)[C@H](CCCNC(=N)N)NC(=O)[C@H](CCCNC(=N)N)NC(=O)[C@H](CC(C)C)NC(=O)[C@H](CCC(N)=O)NC(=O)[C@H](C)NC(=O)[C@H](C)NC(C)=O)C(=O)NCC(=O)N[C@@H](CC(=O)O)C(=O)N[C@@H](CCCCN)C(=O)N[C@H](C(=O)N[C@@H](CC(N)=O)C(=O)N[C@@H](CC(C)C)C(=O)N[C@@H](CCCNC(=N)N)C(=O)N[C@@H](CCC(N)=O)C(=O)N[C@@H](CCCCN)C(=O)N[C@@H](CC(C)C)C(=O)N[C@@H](CC(C)C)C(=O)N[C@@H](CC(N)=O)C(N)=O)C(C)C` [NoxaB^75-93-C75A]: the values for the half-life at 0.208 mM in [15] and in [16] were 1.8 min and 3.3 min, respectively.
